The source of these data is publication PMC11909904 (Cardiovascular Diabetology, 2025).

The assay has as its target T1, GPR30 (Rattus norvegicus, UniProt O08878).
T1 sequence (O08878 1-375): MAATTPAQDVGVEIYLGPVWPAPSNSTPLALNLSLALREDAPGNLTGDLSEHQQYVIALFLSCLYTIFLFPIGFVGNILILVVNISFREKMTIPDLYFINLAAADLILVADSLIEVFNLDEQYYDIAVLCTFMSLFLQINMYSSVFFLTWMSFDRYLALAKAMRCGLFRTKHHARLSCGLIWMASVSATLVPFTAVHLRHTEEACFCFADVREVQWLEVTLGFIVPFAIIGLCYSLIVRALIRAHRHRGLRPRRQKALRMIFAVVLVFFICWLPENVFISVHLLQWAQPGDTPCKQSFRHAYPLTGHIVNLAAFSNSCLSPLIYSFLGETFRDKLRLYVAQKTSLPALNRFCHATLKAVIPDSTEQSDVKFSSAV
Put plainly: CETSA in intact RVECs and lysates. The conditions noted are these: 30 µM Rd (CETSA). It counts as biochemical.

Structures are written as SMILES.

Take `CC(C)=CCC[C@](C)(O[C@@H]1O[C@H](CO)[C@@H](O)[C@H](O)[C@H]1O)[C@H]1CC[C@]2(C)[C@@H]1[C@H](O)C[C@@H]1[C@@]3(C)CC[C@H](O[C@@H]4O[C@H](CO)[C@@H](O)[C@H](O)[C@H]4O[C@@H]4O[C@H](CO)[C@@H](O)[C@H](O)[C@H]4O)C(C)(C)[C@@H]3CC[C@]12C` [Rd, Ginsenoside Rd]: the CETSA result is “the incubation with Rd stabilized GPR30 in heat-denatured intact RVECs and cell lysates”.
